The experiment addresses recombinant human PAD4 (Homo sapiens (Human), UniProt Q9UM07). Nature of the experiment: RFMS Human PAD4 Functional Assay 2. Conditions: RFMS assay 2; 35 nM recombinant human PAD4, 500 μM TSTGGRQGSHH peptide, 2 mM CaCl2, room temperature 30 minutes; read-out: hPAD4 RFMS IC50. The format is biochemical. How it is done:
RFMS Human PAD4 Functional Assay 2: Compound Preparation: • Stock compounds were dissolved and stored in 100% DMSO. Compound solutions were prepared via serial dilution at 3-fold intervals in DMSO with top compound concentration at 20 μM in each assay. 0.25 μl of compound solution was transferred from the compound plate to the assay plate by using an acoustic dispenser. Final Assay Conditions: • Total reaction volume: 25 μl • Assay buffer: […] pH 7.4, 200 mM NaCl, 2 mM CaCl2, 5 mM DTT • 35 nM recombinant human PAD4 • 500 μM TSTGGRQGSHH peptide • […] DMSO • Stop solution: 10% formic acid
Reaction mixtures were incubated at room temperature for 30 minutes. 10 μl each of the reaction mixtures was then mixed with 40 μl of 10% formic acid in a microtiter plate. The plate was frozen at −80° C. before shipping out on dry ice for RapidFire mass spectroscopy analysis.
Thawed samples were loaded onto the Rapid Fire 300 system (Agilent) wherein they were first sipped for 250 ms and then loaded onto an Agilent “C” (C18) cartridge using a mobile phase of water containing 0.09% formic acid/0.01% trifluoroacetic acid for 3000 ms desalting flowing at a rate of 1.5 ml/min. Once the samples were loaded and washed, a mobile phase of acetonitrile containing 0.09% formic acid/0.01% trifluoroacetic acid was used to elute the samples directly onto a Sciex API4000 triple quadrupole mass spectrometer for 3000 ms at a flow rate of 1.25 ml/min.
MRM transitions for substrate and product were monitored in positive ESI mode at m/z=562.3/969.7 and m/z=562.8/541.3 respectively. The dwell time for each transition was set at 100 ms, and the ESI voltage was used at 5500 with a source temperature of 650° C. Extracted ion peaks for each transition were integrated using the Rapid Fire Integrator software.
recombinant human PAD4, sequence (Q9UM07 whole entry): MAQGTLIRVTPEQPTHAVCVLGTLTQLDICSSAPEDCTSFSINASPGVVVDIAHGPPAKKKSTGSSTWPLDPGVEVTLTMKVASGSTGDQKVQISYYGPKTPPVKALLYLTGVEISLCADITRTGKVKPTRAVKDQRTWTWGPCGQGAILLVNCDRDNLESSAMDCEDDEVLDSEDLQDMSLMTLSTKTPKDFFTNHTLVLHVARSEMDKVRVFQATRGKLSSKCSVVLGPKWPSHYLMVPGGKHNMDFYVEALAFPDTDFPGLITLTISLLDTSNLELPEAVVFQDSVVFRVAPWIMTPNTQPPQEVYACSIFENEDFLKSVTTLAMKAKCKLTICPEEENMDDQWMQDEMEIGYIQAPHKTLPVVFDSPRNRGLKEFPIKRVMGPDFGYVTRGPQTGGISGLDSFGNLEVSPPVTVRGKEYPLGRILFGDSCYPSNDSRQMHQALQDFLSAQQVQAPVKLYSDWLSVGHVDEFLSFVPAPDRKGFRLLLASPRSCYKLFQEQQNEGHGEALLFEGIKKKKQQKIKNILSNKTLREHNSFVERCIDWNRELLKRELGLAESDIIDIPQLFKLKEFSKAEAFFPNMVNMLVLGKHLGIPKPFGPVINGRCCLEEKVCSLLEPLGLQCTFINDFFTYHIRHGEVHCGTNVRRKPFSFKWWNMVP
For `COc1ccc2cc(-c3oc4cc(C(=O)N5C[C@H](N)C[C@@H](F)C5)cc(OC)c4c3CCO)n(CC3CC3)c2c1` [Example 628, ((3R,5R)-3-Amino-5-fluoropiperidin-1-yl)(2-(1-(cyclopropylmethyl)-6-methoxy-1H-indol-2-yl)-3-(2-hydroxyethyl)-4-methoxybenzofuran-6-yl)methanone], the IC50 worked out at 322 nM.
In the case of `COc1cc(C(=O)N2C[C@H](N)C[C@@H](F)C2)cc2oc(-c3cc4cccc(OC)c4n3CC3CC3)c(CCO)c12` [Example 632, ((3R,5R)-3-amino-5-fluoropiperidin-1-yl)(2-(1-(cyclopropylmethyl)-7-methoxy-1H-indol-2-yl)-3-(2-hydroxyethyl)-4-methoxybenzofuran-6-yl)methanone], the IC50 was determined as 327 nM.
As for `COc1cc(C(=O)N2C[C@H](N)C[C@@H](F)C2)cc2oc(-c3cc4cccc(OCc5ncno5)c4n3CC3CC3)c(CCO)c12` [Example 639, (2-(7-((1,2,4-oxadiazol-5-yl)methoxy)-1-(cyclopropylmethyl)-1H-indol-2-yl)-3-(2-hydroxyethyl)-4-methoxybenzofuran-6-yl)((3R,5R)-3-amino-5-fluoropiperidin-1-yl)methanone], the figure is 243 nM.
As for `COc1cc(C(=O)N2C[C@H](N)C[C@@H](F)C2)cc2oc(-c3cc4cccc(OCC5COC5)c4n3CC3CC3)c(CCO)c12` [Example 638, ((3R,5R)-3-amino-5-fluoropiperidin-1-yl)(2-(1-(cyclopropylmethyl)-7-(oxetan-3-ylmethoxy)-1H-indol-2-yl)-3-(2-hydroxyethyl)-4-methoxybenzofuran-6-yl)methanone], the figure is 295 nM; as for `COc1cc(C(=O)N2C[C@H](N)C[C@@H](F)C2)cc2oc(-c3cc4ccccc4n3CC3CC3)c(CCO)c12` [Example 630, ((3R,5R)-3-amino-5-fluoropiperidin-1-yl)(2-(1-(cyclopropylmethyl)-1H-indol-2-yl)-3-(2-hydroxyethyl)-4-methoxybenzofuran-6-yl)methanone], 288 nM.
Take `CN[C@@H]1C[C@@H](F)CN(C(=O)c2cc(OC)c3c(CCO)c(-c4cc5ccccc5n4CC4CC4)oc3c2)C1` [Example 631, (2-(1-(cyclopropylmethyl)-1H-indol-2-yl)-3-(2-hydroxyethyl)-4-methoxybenzofuran-6-yl)((3R,5R)-3-fluoro-5-(methylamino)piperidin-1-yl)methanone]: the IC50 is 7580 nM.
For `COc1cc(C(=O)N2C[C@H](N)C[C@@H](F)C2)cc2oc(-c3cc4cccc(OCC5CNC5)c4n3CC3CC3)c(CCO)c12` [Example 636, ((3R,5R)-3-amino-5-fluoropiperidin-1-yl)(2-(7-(azetidin-3-ylmethoxy)-1-(cyclopropylmethyl)-1H-indol-2-yl)-3-(2-hydroxyethyl)-4-methoxybenzofuran-6-yl)methanone] the value was 277 nM; for `Cc1c(-c2cc3ccccc3n2CC2CC2)sc2cc(C(=O)N3CCC[C@@H](N)C3)cc(CCO)c12` [Example 626, (R)-(3-aminopiperidin-1-yl)(2-(1-(cyclopropylmethyl)-1H-indol-2-yl)-4-(2-hydroxyethyl)-3-methylbenzo[b]thiophen-6-yl)methanone], 849 nM; for `COc1ccc2cc(-c3sc4cc(C(=O)N5C[C@H](N)C[C@@H](F)C5)cc(OC)c4c3CCO)n(CC3CC3)c2c1` [Example 624, ((3R,5R)-3-amino-5-fluoropiperidin-1-yl)(2-(1-(cyclopropylmethyl)-6-methoxy-1H-indol-2-yl)-3-(2-hydroxyethyl)-4-methoxybenzo[b]thiophen-6-yl)methanone], 383 nM.

By IC50 is commonly meant the concentration that gives 50% inhibition.

The record behind these values is patent US12473304B2, “Heterocyclic PAD4 inhibitors” (BRISTOL-MYERS SQUIBB COMPANY, priority 2020, dated 2025).
